Results taken from PubChem BioAssay AID1963845 (Molecular Pharmacology Branch, DTP, NCI, 2024).
“And” between values parts separate entries of the source, which are not always exact repeats. Equal entries are not always repeated.

Test system: 429239-143-T-J1-PDC complex spheroid viability
Assay: Anticancer human tumor 429239-143-T-J1-PDC patient-derived small cell lung carcinoma cell line growth inhibition [POLQ]
Conditions: for viability, T/C: stronger effect = lower value
Procedure: Multicellular complex tumor spheroid response to Polymerase (POL) inhibitors (novobiocin, ART-558, RP6685) in combination with a variety of drugs and investigational agents in selected tumor cell lines
The POL inhibitors (novobiocin, ART-558, and RP6685) were evaluated both individually and in combination with standard of care and investigational anticancer small molecules within a complex spheroid model of solid tumors. . Complex spheroids include a stromal component modeled by human endothelial cells (HUVEC) and fibroblasts modeled by human mesenchymal stem cells (MSCs). The concentration ranges selected for each drug and investigational agent were based upon clinically achievable concentrations if the clinical Cmax of the agent was known.
Compounds. The drugs and investigational agents: novobiocin (NSC847541), ART-558 (NSC835418), RP-6685 (NSC848927), peposertib (NSC802822), ceralasertib (NSC780249), elimusertib (NSC800525), camonsertib (NSC841442), AZD-1390 (NSC803789), olaparib (NSC753686), talazoparib (NSC767125), rucaparib (NSC756644), sotorasib (NSC818433), MRTX-1133 (NSC836407), SN-38 (NSC673596), topotecan (NSC609699), epotoside (NSC141540), doxorubicin (NSC123127), gemcitabine (NSC613327), 5-fluorouracil (NSC19893), paclitaxel (NSC125973), vemurafenib (NSC761431), MSA-2 (NSC828583), SN-011 (NSC837082), adavosertib (NSC754352), prexasertib (NSC758257), carboplatin (NSC241240) and oxaliplatin (NSC266046), were obtained from the National Cancer Institute (NCI) Developmental Therapeutics Program Chemical Repository (21). The FDA-approved anticancer drug set is available from the Developmental Therapeutics Program at https://dtp.cancer.gov/organization/dscb/obtaining/. […] The stock solutions were prepared in dimethyl sulfoxide (DMSO, Sigma-Aldrich, St. Louis, MO, cat. D2650), except for the platinum compounds which were prepared in saline (Quality Biological, Gaithersburg, MD, cat. 114-055-101), at 800-fold the tested concentration and stored at -70 degrees C prior to their use. All drugs and investigational agents were tested over a range starting from a high concentration at or near the clinical Cmax and decreasing in half-log increments. If the clinical Cmax for an agent had not been determined, the highest concentration tested was 10 microM, except for SN-38, which was tested at a high concentration of 1 microM.
Cell Culture. All cells were maintained in an incubator at 37 degrees C and 5% CO2 with 95% humidity. The PDC lines were cultured according to standard operating procedures established by the NCI PDMR (https://pdmr.cancer.gov). Table 3 of the manuscript, lists the cell lines along with the number of the three cell types plated to form the mct-spheroids and media for tumor cell growth. After thawing, all PDC lines, except 997537-175-T-J1-PDC and 415267-285-R-J2-PDC, were cultured in Matrigel-coated flasks prepared with a working solution of 1X Ham's F-12 nutrient mix, without supplementation (Thermo Fisher Scientific, cat. 11765054), 100 U/mL penicillin-streptomycin (Thermo Fisher Scientific, cat. 15140122), and 2.5% Matrigel (Corning Inc., Corning, NY, cat. 354248) for the first three passages. The two PDC lines 997537-175-T-J1-PDC and 415267-285-R-J2-PDC were cultured on uncoated flasks. The 857933-349-R-J2-PDC line was cultured in 6C/Colon 1B media containing advanced DMEM/F-12 (Thermo Fisher Scientific, cat. 12634028), 10 mM HEPES (Thermo Fisher Scientific, cat. 15630080), 1X GlutaMAX supplement (Thermo Fisher Scientific, cat. 35050061), 0.1 mg/mL primocin (InvivoGen, San Diego, CA, cat. ant-pm-2), 10% defined fetal bovine serum, heat inactivated (HyClone Laboratories Inc., Logan, UT, cat. SH30070.03HI), 50% L-WRN conditioned media (ATCC, cat. CRL-3276), 1.25 mM N-Acetyl-L-cysteine (Sigma-Aldrich, cat. A9165), 10 mM nicotinamide (Sigma-Aldrich, cat. N0636), 1X B-27 supplement (Thermo Fisher Scientific, cat. 17504044), 1X N-2 supplement (Thermo Fisher Scientific, cat. […]
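Note: luminescence signal used as surrogate measure of viable cells; spheroids exposed to compounds for seven days before readout.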
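Throughout, for viability, T/C: 100% = DMSO vehicle control viability as luminescence relative to vehicle.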

Nc1ccn(C2OC(CO)C(O)C2(F)F)c(=O)n1 (stereo not drawn)
viability, T/C (compound 0.0316 µM): 20% and 68.1% and 17.7% | viability, T/C (compound 0.1 µM): 18.2% and 6.89% and 16% | viability, T/C (compound 0.316 µM): 17.5% and 6.81% and 18.4% | viability, T/C (compound 1 µM): 19.9% and 6.79% and 18.6% | viability, T/C (compound 3.16 µM): 16.3% and 6.33% and 14.9% | viability, T/C (compound 10 µM): 15.8% and 5.46% and 15% | IC50 (curve of compound): < 0.0316 µM and 0.0444 µM

COc1ccc([C@@H](O)c2cc(-c3ncnc4cc(N5CCOCC5)ccc34)c(F)cc2Cl)nn1 + COC1C(OC(N)=O)C(O)C(Oc2ccc3c(O)c(NC(=O)c4ccc(O)c(CC=C(C)C)c4)c(=O)oc3c2C)OC1(C)C
IC50 (curve of first compound, second compound 0.0316 µM): 3.07 µM | IC50 (curve of first compound, second compound 0.1 µM): 3.33 µM | IC50 (curve of first compound, second compound 0.316 µM): 3.95 µM | IC50 (curve of first compound, second compound 1 µM): 3 µM | IC50 (curve of first compound, second compound 3.16 µM): 3.78 µM | IC50 (curve of first compound, second compound 10 µM): 3.64 µM | viability, T/C (second compound 0.0316 µM, first compound 0.0316 µM): 99.5% | viability, T/C (second compound 0.0316 µM, first compound 0.1 µM): 89.1% | viability, T/C (second compound 0.0316 µM, first compound 0.316 µM): 94.5% | viability, T/C (second compound 0.0316 µM, first compound 1 µM): 85.6% | viability, T/C (second compound 0.0316 µM, first compound 3.16 µM): 49.1% | viability, T/C (second compound 0.0316 µM, first compound 10 µM): 8.54% | viability, T/C (second compound 0.1 µM, first compound 0.0316 µM): 96.2% | viability, T/C (second compound 0.1 µM, first compound 0.1 µM): 87.7% | viability, T/C (second compound 0.1 µM, first compound 0.316 µM): 100% | viability, T/C (second compound 0.1 µM, first compound 1 µM): 87.2% | viability, T/C (second compound 0.1 µM, first compound 3.16 µM): 51.9% | viability, T/C (second compound 0.1 µM, first compound 10 µM): 10.8% | viability, T/C (second compound 0.316 µM, first compound 0.0316 µM): 109% | viability, T/C (second compound 0.316 µM, first compound 0.1 µM): 101% | viability, T/C (second compound 0.316 µM, first compound 0.316 µM): 99.4% | viability, T/C (second compound 0.316 µM, first compound 1 µM): 85.4% | viability, T/C (second compound 0.316 µM, first compound 3.16 µM): 60% | viability, T/C (second compound 0.316 µM, first compound 10 µM): 9.63% | viability, T/C (second compound 1 µM, first compound 0.0316 µM): 103% | viability, T/C (second compound 1 µM, first compound 0.1 µM): 96.8% | viability, T/C (second compound 1 µM, first compound 0.316 µM): 92.5% | viability, T/C (second compound 1 µM, first compound 1 µM): 76.4% | viability, T/C (second compound 1 µM, first compound 3.16 µM): 48.7% | viability, T/C (second compound 1 µM, first compound 10 µM): 9.8% | viability, T/C (second compound 3.16 µM, first compound 0.0316 µM): 96.6% | viability, T/C (second compound 3.16 µM, first compound 0.1 µM): 102% | viability, T/C (second compound 3.16 µM, first compound 0.316 µM): 91.1% | viability, T/C (second compound 3.16 µM, first compound 1 µM): 93.4% | viability, T/C (second compound 3.16 µM, first compound 3.16 µM): 57% | viability, T/C (second compound 3.16 µM, first compound 10 µM): 11.2% | viability, T/C (second compound 10 µM, first compound 0.0316 µM): 107% | viability, T/C (second compound 10 µM, first compound 0.1 µM): 107% | viability, T/C (second compound 10 µM, first compound 0.316 µM): 95.3% | viability, T/C (second compound 10 µM, first compound 1 µM): 78.3% | viability, T/C (second compound 10 µM, first compound 3.16 µM): 59.3% | viability, T/C (second compound 10 µM, first compound 10 µM): 8.07%

CNCc1ccc(-c2[nH]c3cc(F)cc4c3c2CCNC4=O)cc1
viability, T/C (compound 0.0316 µM): 87.2% and 101% and 90.9% | viability, T/C (compound 0.1 µM): 82.5% and 98.5% and 90.4% | viability, T/C (compound 0.316 µM): 76.4% and 92.6% and 91.3% | viability, T/C (compound 1 µM): 75.4% and 90% and 68.9% | viability, T/C (compound 3.16 µM): 49.1% and 76.2% and 44.9% | viability, T/C (compound 10 µM): 25% and 30% and 21.1% | IC50 (curve of compound): 3.17 µM and 6 µM and 2.43 µM

C=CCn1c(=O)c2cnc(Nc3ccc(N4CCN(C)CC4)cc3)nc2n1-c1cccc(C(C)(C)O)n1
viability, T/C (compound 0.00316 µM): 99.5% and 101% and 95.1% | viability, T/C (compound 0.01 µM): 103% and 107% and 104% | viability, T/C (compound 0.0316 µM): 89.4% and 120% and 103% | viability, T/C (compound 0.1 µM): 82.4% and 97.7% and 98.2% | viability, T/C (compound 0.316 µM): 91.7% and 94% and 88.9% | viability, T/C (compound 1 µM): 17.4% and 20% and 18.9% | IC50 (curve of compound): 0.603 µM and 0.621 µM and 0.6 µM
